From patent publication US20070105810A1, “THERAPEUTICS” (priority 2003, published 2007)
“Also recorded” adds a separate entry of the source. Where a name gives a salt, the structure may show the parent alone. One block for each molecule: values may come before it.

How the values were obtained:
[1] = test system: NAADP-induced calcium release in intact sea urchin eggs; test: Calcium release on photolysis of caged NAADP in intact sea urchin eggs; type: cell-based, Lytechinus pictus
From the text: Sea urchin eggs were microinjected with a solution containing the calcium reporter dye, calcium green dextran, together with caged NAADP. Fluorescence was then imaged on a Leica confocal microscope using an excitation wavelength of 488 nm. In the control egg [see FIG. 6 A] a brief UV flash photolysed a proportion of the caged NAADP and evoked a large calcium transient.
Sea urchin eggs of Lytechinus pictus were obtained by intracoelomic injection of 0.5 M KCl shed into artificial sea water (in mM, NaCl 435, MgCl2 40, MgSO4 15, CaCl2 11, KCl 10, NaHCO3 2.5, EDTA 1), dejellied by passing through […] nylon mesh, and then washed twice by centrifugation. Eggs were transferred to polylysine-coated glass coverslips for microinjection and microscopy. Oregon Green 488 BAPTA (1,2-bis(2-aminophenoxy)ethane-N,N,N9,N9-tetraacetic acid dextran; Molecular Probes) was pressure-microinjected (Picospritzer; World Precision Instruments). The calcium-sensitive dye was imaged by laser-scanning confocal microscopy (Leica model TCS NT) using the 488-nm line of an argon ion laser for excitation, and the emission was long passfiltered (515 nm) and detected with a photomultiplier tube. Caged NAADP (^29P-(1-(2-nitrophenyl)ethyl) NAADP; Molecular Probes) was purified further by high performance liquid chromatography to remove small amounts of contaminating free NAADP. […]

[2] = test system: NAADP-sensitive release mechanism; test: NAADP-mediated calcium release in sea urchin egg homogenate (Fluo-3); type: biochemical; conditions: 250 nM NAADP, 2.5% homogenate, read-out: IC50, inhibition of NAADP calcium mobilization
Description: (§1) Samples diluted to 2.5% in GluIM in the presence of regenerating system and kept at 17° C. with agitation for 3 hours to facilitate calcium uptake into stores. Calcium release was determined by measuring increase in Fluo-3 fluorescence at 526 nm. Data expressed as % of 250 nM NAADP calcium release in the absence of CMA008 (1-Carbamoylmethyl-3-carboxy-pyridinium iodide). […] CMA008 has no effect on the total calcium mobilization by IP3 or cADPR (insert) indicating the selectivity of this compound on the NAADP-sensitive release mechanism.
(§2) • Subcellular fractions: calcium concentrations are measured with fluo-3 (3 μM) at physiological temperatures, using cell homogenates or subcellular fractions in a fluorimeter (Perkin-Elmer LS-50B) at 506 nm excitation and 526 nm emission. • Intact cells: Injected or hydrolysed ester derivatives of calcium sensitive dye are imaged in intact cells by laser-scanning confocal microscopy (TCS NT, Leica) Images were processed with the software NIH Image to create a self-ratio by dividing each image (F) by an image acquired before stimulation (Fo). [drawing 13] wherein R1, R2 and R3 are as defined herein. I Preparation of Nicotinic Acid Derivatives [drawing 14]

pancreatic acinar cells = test: CCK-induced oscillations of Ca2+ in pancreatic acinar cells; type: cell-based, mouse; conditions: for CCK-evoked calcium spiking/oscillations: external application, 1 mM, pre- and post-applied with respect to CCK (5 pM)
Description: Pancreatic acinar cells were seeded onto poly-lysine-coated number 1 glass coverslips and loaded by incubating cells with 1-5 μM fura-2 acetoxymethylester (Molecular Probes; Leiden, Holland) for 60 min at room temperature. After the loading period, cells were subsequently washed and maintained in buffer at room temperature and used immediately. Cells were excited alternately with 340 and 380 nm light (emission 510 nm), and ratio image of clusters were recorded every 4-5 s, using a 12-bit CCD camera (MicroMax; Princeton Instruments, NJ). All experiment were conducted at room temperature. CMA008 (1-Carbamoylmethyl-3-carboxy-pyridinium iodide) is dissolved in 50% DMSO. Final concentration of DMSO is 0.5% in the solution (composition in mM: 140 NaCl, 4.7 KCl, 1 CaCl2, 1.13 MgCl2, 10 HEPES, 10 Glucose, pH adjusted to 7.2)
Pancreatic acinar cells were isolated from mice and dispersed by collagenase treatment. Cells were incubated with fura-2 AM for 30 min and washed before being imaged on a Metafluor system. The cells were alternately excited at 340/380 nm and emitted light collected at around 510 nm. The ratio of the intensities of emitted light at the two excitation wavelengths were calculated, converted to free calcium concentrations, and plotted again time.
Pancreatic acinar cells were seeded onto poly-lysine-coated number 1 glass coverslips and loaded with calcium indicator by incubating cells with […] fura-2 acetoxymethylester (Molecular Probes; Leiden, Holland) for 60 min at room temperature. After the loading period, cells were subsequently washed and maintained in buffer at room temperature and used immediately. Cells were excited alternately with 340 and 380 nm light (emission 510 nm), and ratio image of clusters 5 were recorded every 4-5 s, using a 12-bit CCD camera (MicroMax; Princeton Instruments, NJ).
All experiments were conducted at room temperature. CMA008 (1-Carbamoylmethyl-3-carboxy-pyridinium iodide) was dissolved in 50% DMSO. Final concentration of DMSO was 0.5% in the solution (composition in mM: 140 NaCl, 4.7 KCl, 1 CaCl2, 1.13 MgCl2, 10 HEPES, 10 Glucose, pH adjusted to 7.2). The inhibition of CCK-evoked calcium spiking, both pre- and post-applied with respect to CCK (5 pM), was consistent with inhibition of NAADP-induced calcium release by CMA008 (1 mM). The biological data for these experiments is presented in FIG. 7 (see also the description of the figures above).

[3] = test system: calcium mobilization by IP3; test: Calcium mobilization by IP3 in sea urchin egg homogenate; type: biochemical
Description: as §1, §2

NAADP binding site = test: [32P]NAADP binding to sea urchin egg homogenate
Description: [^32P]NAADP binding to 0.5% sea urchin egg homogenate.
Competitive CMA008 (1-Carbamoylmethyl-3-carboxy-pyridinium iodide) displacement of [^32P]NAADP (0.2 nM). Samples diluted in GluIM (intracellular medium), pre-incubated with indicated concentration of CMA008 for 10 minutes, then 0.2 nM [^32P]NAADP added and incubated at room temperature for a further 15 mins. Samples filtered through Whatman GF/B filters to separate bound and free [^32P]NAADP ligand. Non specific binding is defined by incubation of the homogenate in the presence of 10 μM NAADP. n=2. Data expressed as a fraction of total binding.
2.5% sea urchin egg homogenate was diluted into GluIM pre-incubated with indicated concentration of CMA008 for 10 minutes at room temperature (A=100 nM, B=1 nM, C=10 μM). Subsequently, [^32P]NAADP was added and samples incubated for a further 15 minutes at room temperature. Samples were filtered through Whatman GF/B filters to separate bound and free [^32P]NAADP ligand.

[4] = test system: calcium mobilization by cADPR; test: Calcium mobilization by cADPR in sea urchin egg homogenate; type: biochemical
Description: as §1, §2

[5] = test system: transfer experimental autoimmune encephalomyelitis (EAE) in Lewis rats; test: Transfer experimental autoimmune encephalomyelitis (EAE); type: in vivo, Lewis rat; conditions: 50 μmol/100 g body weight i.p. twice per day; day 3.5 to day 6
From the text: Transfer of MBP-specific CD4-positive T cells was used at day 0 to induce experimental autoimmune encephalomyelitis (EAE) in Lewis rats. Animals injected with PBS (vehicle) or nicotinic acid (control compound with structural similarities to BZ52) developed severe paralysis of tail and rear legs due to the inflammation. Clinical symptoms started day 3.5 and reached their maxima day 4 to 6 (or 6.5). Between day 3.5 and day 6, no difference between PBS and nicotinic acid was observed, whereas a beneficial effect of BZ52 was visible (FIG. 14).
Animals (6 per group, body weight approx. 150 g) were injected i.p. twice per day with either PBS (vehicle control), nicotinic acid (50 μmol/100 g body weight), or BZ 52 (50 μmol/100 g body weight). Clinical scores indicate the degree of paralysis of tail and legs. Data are presented as mean±SD from one representative experiment (n=6).
Animals (6 per group, body weight approx. 150 g) were injected i.p. twice per day with either PBS (vehicle control), nicotinic acid (50 μmol/100 g body weight), or BZ 52 (50 μmol/100 g body weight). […] Data are presented as mean±SD from one representative experiment (n=6).
5×10^6 activated MBP specific-GFP Tcells were transferred i.v. into recipient Lewis rats. Clinical EAE was graded in five scores: 0.5, loss of tail tonus; 1, tail paralysis; 2, gait disturbance; 3, hind limb paralysis; 4, tetraparesis; 5, death.
Animals' weight was measured twice a day.
In order to analyze the effect of BZ194 on encephalitogenic T cells during the effector phase of EAE we used retrovirally transduced MBP-specific T cells expressing the marker gene green fluorescent protein (TMBP-GFP cells).
Animals were treated for 5 d intraperitoneally with 500 μmol BZ194 or vehicle (DMSO).

melting point: 167 to 170 °C
SMILES: COC(=O)c1ccc[n+](CCCC#N)c1 (as salt: iodide)

melting point: 203 to 205 °C
SMILES: O=C(O)c1ccc[n+](Cc2ccccc2)c1 (as salt: bromide)

melting point: 162 to 165 °C
SMILES: CCC[n+]1cccc(C(=O)O)c1 (as salt: iodide)

melting point: 98 to 100 °C
SMILES: COC(=O)c1ccc[n+](CCC(N)=O)c1 (as salt: iodide)

cell membrane permeation ([1]; inferred from activity of compound applied outside the cell): permeates the cell membrane
IC50 [2]: 15.1 µM
effect on the Bmax (NAADP binding site; 1 nM and 100 nM CMA008): no effect
Bmax (total specific binding of [32P]NAADP) (NAADP binding site; in the presence of 10 μM CMA008, 2.5% homogenate, 68.65%±2.7 in its absence): 46.28%±2.61
SMILES: NC(=O)C[n+]1cccc(C(=O)O)c1 [CMA008, 1-Carbamoylmethyl-3-carboxy-pyridinium iodide]
calcium release on photolysis of caged NAADP ([1]; CMA008 10 mM applied externally in sea water, NPE-NAADP 1 μM): blocks; also recorded: failed to induce
CCK-evoked calcium spiking (pancreatic acinar cells; CMA008 1 mM added post-CCK (5 pM)): inhibition
resting calcium levels (pancreatic acinar cells; CMA008 1 mM added pre-CCK): no apparent effect
response to CCK (pancreatic acinar cells; CMA008 1 mM added pre-CCK (5 pM)): a much smaller response to CCK was seen, with a greatly reduced frequency
CCK-evoked calcium spiking/oscillations (pancreatic acinar cells): inhibition
CCK-evoked calcium spiking/oscillations (pancreatic acinar cells; listed as CM008): inhibited or reduced
effect on total calcium mobilization by IP3 [3]: no effect
effect on total calcium mobilization by cADPR [4]: no effect

effect on [32P]NAADP binding to egg membranes (NAADP binding site; up to 1 mM, 0.2 nM [32P]NAADP, 0.5% homogenate): without effect
SMILES: O=C(O)c1cccnc1 [nicotinic acid, reference compound]
clinical symptoms (clinical score) vs PBS [5]: no difference

melting point: 172 to 174 °C
SMILES: CCN(CC)CC[n+]1cccc(C(=O)OC)c1 (as salt: iodide)

melting point: 170 to 173 °C
SMILES: NC(=O)CC[n+]1cccc(C(=O)O)c1 (as salt: iodide) [Example 11, 1-(2-Carbamoyl-ethyl)-3-carboxy-pyridinium; iodide]

melting point: 163 to 165 °C
SMILES: CCN(CC)C(=O)C[n+]1cccc(C(=O)OC)c1 (as salt: iodide)

melting point: 97 to 100 °C
SMILES: CCN(CC)C(=O)C[n+]1cccc(C(=O)O)c1 (as salt: iodide) [Example 10, 3-Carboxy-1-diethylcarbamoylmethyl-pyridinium; iodide]
